The target in data set [1] is T1, NACHT, LRR and PYD domains-containing protein 3 (Mus musculus, UniProt Q8R4B8). The data set is described as follows: Inhibition of NLRP3 in mouse BMDM cells assessed as reduction in IL-1beta production preincubated for 30 mins followed by ATP addition measured after 45 mins by ELISA assay. It counts as cell-based. (ELISA stands for enzyme-linked immunosorbent assay.)

In data set [2] the test system is THP-1. The data set is described as follows: Induction of pyroptosis in human THP-1 cells by AlphaLisa assay. It counts as functional, cell-based. (In general: In Alpha technology, singlet oxygen from a donor bead excites a nearby acceptor bead.)
The target in data set [3] is T2, NACHT, LRR and PYD domains-containing protein 3 (Homo sapiens, UniProt Q96P20). The data set can be described thus: Inhibition of NLRP3 in LPS induced human THP-1 cells assessed as reduction in IL-1beta production preincubated for 3 hrs followed by nigericin addition measured after 1 hrs by resazurin staining based assay. The class given is cell-based. (In general: The colour change of resazurin is a common sign of viable cells or microbes.)
T2 sequence (Q96P20 whole entry, the tested form may be a part): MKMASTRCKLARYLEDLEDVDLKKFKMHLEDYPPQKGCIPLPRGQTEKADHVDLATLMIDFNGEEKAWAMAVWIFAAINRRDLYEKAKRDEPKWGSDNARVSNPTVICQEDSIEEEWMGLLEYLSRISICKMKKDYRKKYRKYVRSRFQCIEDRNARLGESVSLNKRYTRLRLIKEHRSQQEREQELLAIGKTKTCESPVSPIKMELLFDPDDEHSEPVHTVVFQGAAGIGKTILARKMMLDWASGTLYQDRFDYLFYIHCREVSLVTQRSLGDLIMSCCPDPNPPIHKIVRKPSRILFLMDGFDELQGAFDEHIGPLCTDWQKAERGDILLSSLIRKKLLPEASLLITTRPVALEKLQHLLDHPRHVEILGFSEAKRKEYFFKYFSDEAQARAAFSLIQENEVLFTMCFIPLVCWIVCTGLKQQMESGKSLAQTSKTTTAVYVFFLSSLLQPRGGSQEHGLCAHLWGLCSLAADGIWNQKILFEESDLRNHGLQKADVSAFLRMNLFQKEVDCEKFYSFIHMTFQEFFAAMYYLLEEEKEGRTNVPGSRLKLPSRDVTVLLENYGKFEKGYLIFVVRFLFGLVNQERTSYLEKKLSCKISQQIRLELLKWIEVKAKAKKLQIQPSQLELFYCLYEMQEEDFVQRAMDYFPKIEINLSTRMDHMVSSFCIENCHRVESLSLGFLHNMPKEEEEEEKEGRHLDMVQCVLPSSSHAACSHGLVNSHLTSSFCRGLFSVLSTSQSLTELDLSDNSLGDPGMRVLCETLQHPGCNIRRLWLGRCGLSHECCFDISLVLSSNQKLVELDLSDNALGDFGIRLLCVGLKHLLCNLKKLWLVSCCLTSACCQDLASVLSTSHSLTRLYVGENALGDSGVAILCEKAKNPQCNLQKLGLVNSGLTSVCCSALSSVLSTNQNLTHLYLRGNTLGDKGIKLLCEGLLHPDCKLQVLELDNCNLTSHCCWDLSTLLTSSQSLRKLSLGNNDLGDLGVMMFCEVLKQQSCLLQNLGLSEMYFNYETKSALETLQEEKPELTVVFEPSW

The target of data set [4] is T1, NACHT, LRR and PYD domains-containing protein 3. The data set is described as follows: Inhibition of NLRP3 in LPS induced mouse BMDM cells assessed as reduction in IL-1beta production measured after 30 mins by ELISA assay. It counts as cell-based.
Data set [5] concerns the target T2, NACHT, LRR and PYD domains-containing protein 3. The data set is described as follows: Inhibition of NLRP3 in human THP-1 cells assessed as reduction in IL-1beta production measured after 3 hrs. It counts as cell-based.
Data set [6] concerns the target T1, NACHT, LRR and PYD domains-containing protein 3. The data set can be described thus: Inhibition of NLRP3 in mouse BMDM assessed as reduction in IL-1beta production preincubated for 3 hrs followed by ATP measured after 45 mins by ELISA assay. It counts as cell-based.
Data set [7] concerns the target T2, NACHT, LRR and PYD domains-containing protein 3. The data set can be described thus: Inhibition of NLRP3 in LPS induced human Whole blood cell assessed as reduction in IL-1beta production preincubated for 3 hrs followed by nigericin measured after 1 hrs by resazurin staining based assay. It counts as tissue-based.
Data set [8] shares this target. The data set can be described thus: Inhibition of NLRP3 in human THP-1 cells assessed as reduction in IL-1beta production by ELISA. The class given is cell-based.
For data set [9] the target is unchanged. The data set is described as follows: Inhibition of NLRP3 in human THP-1 cells assessed as reduction in IL-1beta production measured after 1 hrs by ELISA assay. It counts as cell-based.
Data set [10] has the same target. The data set is described as follows: Inhibition of NLRP3 in human THP-1 cells assessed as reduction in IL-1beta production. The class given is cell-based.
Data set [11] in a line: Inhibition of NLRP3 in LPS induced PBMC (unknown origin) assessed as reduction in IL-1beta production preincubated 0.5 hrs followed by nigericin addition measured after 1 hrs by ELISA assay. The class given is cell-based.
For data set [12], the target named is T2, NACHT, LRR and PYD domains-containing protein 3. The data set is described as follows: Inhibition of NLRP3 in human PBMC cells assessed as reduction in IL-1beta production preincubated for 30 mins followed by LPS addition measured after 6 hrs. The class given is cell-based.
Data set [13] has the same target. The data set can be described thus: Inhibition of NLRP3 in human PBMC cells assessed as reduction in TNF alpha level preincubated for 30 mins followed by LPS addition measured after 6 hrs. The class given is cell-based.
Data set [14] deals with THP-1. The data set is described as follows: Antiinflammatory activity against PMA-differentiated human THP-1 cells assessed as reduction of IL-1beta production measured after 2 hrs. Conditions: THP-1, 2 h. The class given is functional, cell-based.
The nature of data set [15]: Oral bioavailability in Sprague-Dawley rat measured upto 24 hrs by LC-MS/MS analysis. It counts as ADME, organism-based. The conditions noted are these: in vivo.
The target in data set [16] is T2, NACHT, LRR and PYD domains-containing protein 3. The data set can be described thus: Inhibition of NLRP3 in human THP-1 cells assessed as reduction in IL-1beta production pre incubated for 3 hrs followed by nigericin addition measured after 1 hrs by resazurin staining based assay. The class given is cell-based.
The nature of data set [17]: Inhibition of NLRP3 in PBMC cells (unknown origin) assessed as reduction in IL-1beta production measured after 2 hrs by ELISA assay. The class given is cell-based.
For data set [18], the target named is T2, NACHT, LRR and PYD domains-containing protein 3. The data set can be described thus: Inhibition of NLRP3 in human PBMC cells assessed as reduction in Il-1beta production at 0.5 uM relative to control. It counts as cell-based.
Data set [19] has as its target T1, NACHT, LRR and PYD domains-containing protein 3. The data set is described as follows: Inhibition of NLRP3 in mouse J774A.1 cells assessed as reduction of IL-1beta production. It counts as cell-based, J774.A1.
The target in data set [20] is T2, NACHT, LRR and PYD domains-containing protein 3. The data set can be described thus: Inhibition of NLR3 in human Whole blood cell assessed as reduction in IL-1beta production preincubated for 0.5 hrs followed by LPS treatement for […] and further addition of ATP measured after 45 mins by ELISA assay. The class given is tissue-based.
Data set [21] has the same target. The data set is described as follows: Inhibition of NLRP3 in human Whole blood cell assessed as reduction in IL-1beta production incubated for overnight in presence of ATP by ELISA. It counts as tissue-based.

Broadly, the IC50 is the concentration needed to halve the response being measured. One may read the bioavailability as the share of a dose that reaches the circulation, judged against a reference dose that is usually intravenous. A higher bioavailability goes with much systemic uptake. The inhibition is the drop in the measured response relative to a control, in per cent. By EC50 is commonly meant the midpoint of the concentration-response curve.

T1 sequence (Q8R4B8 whole entry, the tested form may be a part): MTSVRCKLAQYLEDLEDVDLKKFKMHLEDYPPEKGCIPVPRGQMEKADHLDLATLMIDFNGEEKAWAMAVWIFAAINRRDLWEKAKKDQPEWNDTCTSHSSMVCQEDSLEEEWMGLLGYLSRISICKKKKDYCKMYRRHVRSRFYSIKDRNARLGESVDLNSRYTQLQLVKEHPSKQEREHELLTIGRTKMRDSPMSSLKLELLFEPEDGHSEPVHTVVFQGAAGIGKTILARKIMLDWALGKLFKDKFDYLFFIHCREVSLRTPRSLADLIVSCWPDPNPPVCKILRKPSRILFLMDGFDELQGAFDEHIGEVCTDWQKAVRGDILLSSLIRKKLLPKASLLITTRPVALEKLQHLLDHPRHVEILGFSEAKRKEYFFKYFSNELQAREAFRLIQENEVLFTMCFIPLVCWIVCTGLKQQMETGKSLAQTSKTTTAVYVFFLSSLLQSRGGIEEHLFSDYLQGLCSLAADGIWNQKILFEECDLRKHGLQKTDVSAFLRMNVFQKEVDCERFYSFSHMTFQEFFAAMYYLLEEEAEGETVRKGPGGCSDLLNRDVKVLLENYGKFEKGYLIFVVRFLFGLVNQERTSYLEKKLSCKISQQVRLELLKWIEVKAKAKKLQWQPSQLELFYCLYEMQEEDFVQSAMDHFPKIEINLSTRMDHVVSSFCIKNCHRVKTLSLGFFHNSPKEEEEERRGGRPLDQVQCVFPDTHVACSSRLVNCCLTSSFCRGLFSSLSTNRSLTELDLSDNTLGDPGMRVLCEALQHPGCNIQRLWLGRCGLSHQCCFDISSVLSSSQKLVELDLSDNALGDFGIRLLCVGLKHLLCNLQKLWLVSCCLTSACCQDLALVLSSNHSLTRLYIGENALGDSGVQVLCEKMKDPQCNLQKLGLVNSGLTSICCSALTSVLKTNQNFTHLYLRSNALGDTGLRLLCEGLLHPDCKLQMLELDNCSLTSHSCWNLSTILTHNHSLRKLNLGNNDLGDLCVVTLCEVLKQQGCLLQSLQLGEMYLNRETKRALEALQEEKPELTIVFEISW

For `CC(C)c1cc(F)cc(C(C)C)c1NC(=O)NS(=O)(=O)c1cc2c(o1)CCCC2(C)O` (stereo not drawn), the IC50 in data set [1] is less than 100 nM.

For the compound `Cc1cc(Cl)cc(O)c1-c1ccc2oc(N[C@@H]3CCCN4CCC[C@@H]34)nc2n1`, half-maximal inhibition in the data set on THP-1 [2] (IC50) required 27.4 nM.

As to `O=S1(=O)c2nnc([nH]2)Nc2c(ccc3c2CCC3)-c2ccnc(c2)OCCCN2CCC3(CC1C3)C2`, the IC50 in data set [3] is not above 100 nM.

For `CCC(CC)CN1C(=O)/C(=C/c2ccccc2S(C)(=O)=O)SC1=S`, in data set [4], the IC50 turned out to be 1400 nM.

`CS(=O)(=O)NC(=O)Nc1c(-c2ccnc(OC3CCN(Cc4ccccc4)CC3)c2)ccc2c1CCC2`: in [5], the IC50 was not above 250 nM.

With `C[C@@]1(O)CCCc2oc(S(=O)(=O)NC(=O)Nc3c4c(cc5c3CCC5)CCC4)cc21`, the 50% inhibitory concentration (IC50) in data set [6] is less than 100 nM.

Turning to `COc1cc(-c2ccc3c(c2NC(=O)NS(=O)(=O)c2cn(C(C)C)c(=O)cn2)CCC3)ccn1`, the IC50 in [7] is less than 1000 nM.

Regarding `CC1(C)CCc2c1cc1c(c2NC(=O)NS(=O)(=O)c2ccnn2CCCB(O)O)CCC1`, the IC50 in [8] was less than 1000 nM.

For the compound `CC(C)c1nn(CC(=O)Nc2ncncc2F)c(=O)c2cc(C(F)(F)F)ccc12`, the 50% inhibitory concentration (IC50) in data set [9] is more than 50000 nM.

Turning to `Cc1cc2c(c(NC(=O)N[S+](=N)([O-])c3ccccc3)c1-c1ccnc(OC3CCN(C)CC3)c1)CCC2` (stereo not drawn), the half-maximal inhibitory concentration (IC50) in [10] was less than 250 nM.

For the compound `CC(C)OC(=O)C(Cc1ncccn1)OC(=O)N[C@@H](C)c1ccc(C(F)(F)F)cc1` (stereo partly drawn), the concentration for half-maximal inhibition (IC50) in [11] was less than 1000 nM.

With `CCOC(=O)C(Cn1cc(F)cn1)OC(=O)Nc1c2c(cc3c1CCC3)CCC2` (stereo not drawn), in data set [11], the 50% inhibitory concentration (IC50) is less than 10 nM.

Take `CC(C)c1nn(C2(C(=O)Nc3ncccn3)CC2)c(=O)cc1-c1cc(F)cc(F)c1`: the IC50 in [9] was determined as 1140 nM.

For `CC(C)c1nn(CC(=O)N[C@H]2C[C@](C)(O)C2)c(=O)c2ccc(Br)cc12`, the IC50 in [12] is less than 25 nM; in data set [13], more than 10 µM.

In the case of `CCc1oc(C(C)C)cc1NC(=O)NS(=O)(=O)C(c1cnn(C)c1)C1CCCN(C)C1` (stereo not drawn), the 50% inhibitory concentration (IC50) in [5] was less than 100 nM.

As to `O=C(Nc1c2c(cc3c1CC3)CCC2)NS(=O)(=O)c1cnn2c1OCCC2`, in the data set on THP-1 [14], the half-inhibitory concentration (IC50) was 200 nM.

In turn, `CCN1CCC(S(=O)(=O)NC(=O)Nc2c3c(cc4c2CCC4)CCC3)CC1` [SELNOFLAST] displayed a bioavailability in data set [15] of 76.7%. Also, the 50% inhibitory concentration (IC50) in [16] was not above 1000 nM.

For `CCNc1cc2c(=O)n(CC(=O)Nc3ccc4nncn4c3)nc(C(C)C)n2n1`, the IC50 worked out at 24 nM in data set [12] and 7.04 µM in data set [13].

On to `CC(C)c1nn(CC(=O)Nc2ccc3nncn3c2)c(=O)c2sc(C3CC3)nc12`, for which, in data set [13], the IC50 worked out at 4.99 µM.

On to `CN(C)Cc1cc(S(=O)(=O)NC(=O)Nc2c3c(cc4c2CCC4)CCC3)nn1C1CC1`, for which, in data set [16], the IC50 is not above 40 nM.

With `Cn1cc(N(C[C@@H]2CCCO2)CS(=O)(=O)NC(=O)Nc2c3c(cc4c2CC4)CCC3)cn1`, in data set [17], the half-inhibitory concentration (IC50) was less than 100 nM.

Take `Cc1cc2c(c(NC(=O)NS(=O)(=O)c3cc(C(C)(C)O)co3)c1-c1ccnc(OC3CCN(C)CC3)c1)CCC2`: the IC50 in data set [10] is not above 250 nM.

With `C=C1C(=O)[C@@]23C(CC[C@@H]1[C@H]2OC(=O)/C=C/c1ccc(N2CCOCC2)cc1)[C@@]12CO[C@]3(O)[C@@H](O)[C@@H]1C(C)(C)CC[C@@H]2O` (stereo partly drawn), in [18], the inhibition came out at 2.94%.

On to `Cc1nc(C(C)C)c(NC(=O)NS(=O)(=O)c2cc(C(C)(C)O)co2)n1-c1ccncc1`, for which the IC50 in [10] was not above 250 nM.

As to `O=C(/C=C/S(=O)(=O)c1ccccc1Cl)NCCc1ccccc1`, the IC50 in data set [19] came out at 910 nM.

In the case of `O=C(Nc1c2c(cc3c1CCC3)CCC2)NS(=O)(=O)c1cc2c(o1)C1CCN(CC1)C2`, the IC50 in data set [20] is less than 1000 nM.

With `Cn1ncc2ccc(S(=O)(=O)NC(=O)Nc3c4c(cc5c3CCC5)CCC4)cc21`, the IC50 in data set [3] was less than 1000 nM.

For the compound `O=C(Nc1c(C2CC2)ccc2c1CCC2)NS(=O)(=O)c1cc2c(o1)C1CCN(CC1)C2`, in data set [21], the IC50 is less than 1000 nM.

Regarding `CC(C)c1nn(CC(=O)Nc2ccc3nncn3n2)c(=O)cc1Nc1ccccc1`, the concentration for a half-maximal effect (EC50) in data set [12] was more than 15 µM.

Consider `CC(C)c1cc(F)cc(C(C)C)c1NC(=O)N=[S+](N)([O-])c1ccc2ccccc2c1` (stereo not drawn), for which the 50% inhibitory concentration (IC50) in [10] is more than 30000 nM.

For the origin of these results see ChEMBL document CHEMBL5390258, “Recent Progress and Prospects of Small Molecules for NLRP3 Inflammasome Inhibition” (J Med Chem, 2023).
